Measurements as given in PubChem BioAssay (NCI).
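Where inhibition never reached the appropriate level, the endpoint shown equals the highest concentration tested. Otherwise, values were interpolated linearly from a five-concentration, 48-hour dose response in 96-well plates. The concentration for 50% growth inhibition is given as GI50. At the TGI there is no net growth.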

Tests used:
Assay in all cases: NCI tumour cell line growth inhibition, 48 h
A549 NSCLC = test system: A549 NSCLC
CAKI-1 renal = test system: CAKI-1 renal
CCRF-CEM leukemia = test system: CCRF-CEM leukemia
DU-145 prostate = test system: DU-145 prostate
EKVX NSCLC = test system: EKVX NSCLC
HCC-2998 colon = test system: HCC-2998 colon
HL-60(TB) leukemia = test system: HL-60(TB) leukemia
HOP-62 NSCLC = test system: HOP-62 NSCLC
HS 578T breast = test system: HS 578T breast
HT29 colon = test system: HT29 colon
K-562 leukemia = test system: K-562 leukemia
LOX IMVI melanoma = test system: LOX IMVI melanoma
MDA-MB-231 breast = test system: MDA-MB-231 breast
MOLT-4 leukemia = test system: MOLT-4 leukemia
NCI-H460 lung = test system: NCI-H460 lung
NCI-H522 lung = test system: NCI-H522 lung
NCI/ADR-RES ovarian = test system: NCI/ADR-RES ovarian
OVCAR-8 ovarian = test system: OVCAR-8 ovarian
RPMI-8226 leukemia = test system: RPMI-8226 leukemia
RXF 393 renal = test system: RXF 393 renal
SF-268 CNS = test system: SF-268 CNS
SK-MEL-2 melanoma = test system: SK-MEL-2 melanoma
SK-MEL-5 melanoma = test system: SK-MEL-5 melanoma
SNB-75 CNS = test system: SNB-75 CNS
SR leukemia = test system: SR leukemia
T-47D breast = test system: T-47D breast
TK-10 renal = test system: TK-10 renal
U251 CNS = test system: U251 CNS
UACC-257 melanoma = test system: UACC-257 melanoma

What does the source list for COC(=O)/C=C1/SC(=Nc2ccc(C(F)(F)F)cc2)N(CCc2c[nH]c3ccc(O)cc23)C1=O?
GI50 (A549 NSCLC): 3.05 µM; TGI (A549 NSCLC): > 100 µM; GI50 (CAKI-1 renal): 2710 nM; TGI (CAKI-1 renal): > 100 µM; GI50 (CCRF-CEM leukemia): 569 nM; TGI (CCRF-CEM leukemia): 6.69 µM; GI50 (DU-145 prostate): 2210 nM; TGI (DU-145 prostate): > 100 µM; GI50 (EKVX NSCLC): 3.2 µM; TGI (EKVX NSCLC): > 100 µM; GI50 (HCC-2998 colon): 1940 nM; TGI (HCC-2998 colon): 3.56 µM; GI50 (HL-60(TB) leukemia): 1570 nM; TGI (HL-60(TB) leukemia): 6.65 µM; GI50 (HOP-62 NSCLC): 1750 nM; TGI (HOP-62 NSCLC): 3.85 µM; GI50 (HS 578T breast): 1870 nM; TGI (HS 578T breast): 5.78 µM; GI50 (HT29 colon): 1750 nM; TGI (HT29 colon): 3.43 µM; GI50 (K-562 leukemia): 1550 nM; TGI (K-562 leukemia): > 100 µM; GI50 (LOX IMVI melanoma): 1250 nM; TGI (LOX IMVI melanoma): 2680 nM; GI50 (MDA-MB-231 breast): 1910 nM; TGI (MDA-MB-231 breast): 4.67 µM; GI50 (MOLT-4 leukemia): 349 nM; TGI (MOLT-4 leukemia): 10.1 µM; GI50 (NCI-H460 lung): 1870 nM; TGI (NCI-H460 lung): 3.79 µM; GI50 (NCI-H522 lung): 1500 nM; TGI (NCI-H522 lung): 3.25 µM; GI50 (NCI/ADR-RES ovarian): 2160 nM; TGI (NCI/ADR-RES ovarian): 8.96 µM; GI50 (OVCAR-8 ovarian): 1620 nM; TGI (OVCAR-8 ovarian): 6.04 µM; GI50 (RPMI-8226 leukemia): 722 nM; TGI (RPMI-8226 leukemia): 3.26 µM; GI50 (RXF 393 renal): 1160 nM; TGI (RXF 393 renal): 2590 nM; GI50 (SF-268 CNS): 1690 nM; TGI (SF-268 CNS): 5.36 µM; GI50 (SK-MEL-2 melanoma): 1520 nM; TGI (SK-MEL-2 melanoma): 3.22 µM; GI50 (SK-MEL-5 melanoma): 1860 nM; TGI (SK-MEL-5 melanoma): 3.99 µM; GI50 (SNB-75 CNS): 2270 nM; TGI (SNB-75 CNS): 9.68 µM; GI50 (SR leukemia): 416 nM; TGI (SR leukemia): 5.25 µM; GI50 (T-47D breast): 2070 nM; TGI (T-47D breast): 9.64 µM; GI50 (TK-10 renal): 2250 nM; TGI (TK-10 renal): 5.76 µM; GI50 (U251 CNS): 1460 nM; TGI (U251 CNS): 3.05 µM; GI50 (UACC-257 melanoma): 1940 nM; TGI (UACC-257 melanoma): 5.17 µM
